Reference: patent US11174252B2, “Heterocyclic compounds as kinase inhibitors” (priority 2018, dated 2021)
pIC50: −log10 of the molar value. Where two headings read alike, the source gives them in different places.

Experiments:
CDK4 = CDK4 (Homo sapiens (Human), UniProt P11802); test: In vitro kinase inhibition, luminescence (ADP-Glo) with retinoblastoma substrate; format: biochemical
CDK6 = CDK6 (Homo sapiens (Human), UniProt Q00534); test: biochemical; format: biochemical
CDK1 (cyclin B) = CDK1 (cyclin B) (Homo sapiens (Human), UniProt P06493); test: Z'-LYTE kinase assay; format: biochemical
CDK1 (cyclin B), sequence (P06493 whole entry): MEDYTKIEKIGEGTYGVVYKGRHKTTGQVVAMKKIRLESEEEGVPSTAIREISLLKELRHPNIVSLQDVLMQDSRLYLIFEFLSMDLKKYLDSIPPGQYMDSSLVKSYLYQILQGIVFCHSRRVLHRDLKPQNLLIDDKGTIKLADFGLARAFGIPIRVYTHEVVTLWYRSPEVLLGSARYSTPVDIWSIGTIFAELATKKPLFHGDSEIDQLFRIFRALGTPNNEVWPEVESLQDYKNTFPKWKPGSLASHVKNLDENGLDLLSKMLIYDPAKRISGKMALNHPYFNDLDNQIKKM
CDK1 (cyclin B), sequence (P14635 whole entry partner): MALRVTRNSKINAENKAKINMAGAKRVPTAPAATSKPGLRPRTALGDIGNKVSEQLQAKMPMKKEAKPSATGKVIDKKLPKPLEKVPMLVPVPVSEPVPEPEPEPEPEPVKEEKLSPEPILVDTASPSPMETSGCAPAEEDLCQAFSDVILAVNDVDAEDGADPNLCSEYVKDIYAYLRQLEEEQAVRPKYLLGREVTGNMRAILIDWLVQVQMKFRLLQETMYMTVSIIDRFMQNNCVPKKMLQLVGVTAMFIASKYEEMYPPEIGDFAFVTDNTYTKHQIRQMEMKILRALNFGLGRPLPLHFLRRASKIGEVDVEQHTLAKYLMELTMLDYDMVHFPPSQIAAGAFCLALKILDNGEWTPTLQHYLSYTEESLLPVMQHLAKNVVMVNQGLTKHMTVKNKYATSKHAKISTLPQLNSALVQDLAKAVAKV
From the text: The following equations were used for Z′-LYTE™ Screening Assay Data Analysis.

CDK2 (cyclin A) = CDK2 (cyclin A) (Homo sapiens (Human), UniProt P24941); test: Z'-LYTE kinase assay; format: biochemical
Method: IC50 values of compounds against CDK2 (cyclin A) were determined by Z'-LYTETM. […] The following equations were used for Z'-LYTETM Screening Assay Data Analysis.

MCF-7 = test: Cancer cell proliferation assay, single agent; format: cell-based; conditions: Homo sapiens
DU4475 = test: Cancer cell proliferation assay, single agent; format: cell-based; conditions: Homo sapiens
FMS kinase = FMS kinase (Homo sapiens (Human), UniProt P07333); test: LanthaScreen kinase assay (ATP, fluorescent-PolyGT substrate, TR-FRET); format: biochemical
FMS kinase, sequence (P07333 20-972): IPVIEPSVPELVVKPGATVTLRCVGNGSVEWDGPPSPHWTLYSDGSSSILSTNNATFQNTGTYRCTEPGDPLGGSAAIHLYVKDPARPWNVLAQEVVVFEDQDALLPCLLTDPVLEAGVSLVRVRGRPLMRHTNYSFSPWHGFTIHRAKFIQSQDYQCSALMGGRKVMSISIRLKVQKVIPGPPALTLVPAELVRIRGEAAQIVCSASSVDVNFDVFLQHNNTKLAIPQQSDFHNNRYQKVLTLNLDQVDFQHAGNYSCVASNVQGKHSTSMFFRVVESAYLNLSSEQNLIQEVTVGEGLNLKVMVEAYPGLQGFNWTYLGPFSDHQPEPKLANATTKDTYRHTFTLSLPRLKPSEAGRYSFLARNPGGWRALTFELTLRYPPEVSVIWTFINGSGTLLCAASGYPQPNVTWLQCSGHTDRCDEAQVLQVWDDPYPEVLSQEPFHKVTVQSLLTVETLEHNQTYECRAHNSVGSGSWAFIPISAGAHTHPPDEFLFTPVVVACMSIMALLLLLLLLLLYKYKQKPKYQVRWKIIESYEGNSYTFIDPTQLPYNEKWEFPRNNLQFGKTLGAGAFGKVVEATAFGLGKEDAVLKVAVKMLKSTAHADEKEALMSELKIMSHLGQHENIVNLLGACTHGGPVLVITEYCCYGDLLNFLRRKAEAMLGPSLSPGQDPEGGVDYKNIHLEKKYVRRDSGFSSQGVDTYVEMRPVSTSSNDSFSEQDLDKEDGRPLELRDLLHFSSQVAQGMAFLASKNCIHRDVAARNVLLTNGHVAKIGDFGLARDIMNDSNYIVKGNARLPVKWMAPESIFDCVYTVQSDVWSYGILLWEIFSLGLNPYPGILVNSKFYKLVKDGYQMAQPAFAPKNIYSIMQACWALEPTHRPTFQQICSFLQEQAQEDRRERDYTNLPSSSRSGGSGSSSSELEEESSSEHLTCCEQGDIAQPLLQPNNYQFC

PI3Kδ kinase = PI3Kδ kinase (Homo sapiens (Human), UniProt O00329); test: PI3Kδ kinase ADP-Glo assay (Reaction Biology Corporation); conditions: read-out: PI3Kδ IC50
PI3Kδ kinase, sequence (O00329 whole entry): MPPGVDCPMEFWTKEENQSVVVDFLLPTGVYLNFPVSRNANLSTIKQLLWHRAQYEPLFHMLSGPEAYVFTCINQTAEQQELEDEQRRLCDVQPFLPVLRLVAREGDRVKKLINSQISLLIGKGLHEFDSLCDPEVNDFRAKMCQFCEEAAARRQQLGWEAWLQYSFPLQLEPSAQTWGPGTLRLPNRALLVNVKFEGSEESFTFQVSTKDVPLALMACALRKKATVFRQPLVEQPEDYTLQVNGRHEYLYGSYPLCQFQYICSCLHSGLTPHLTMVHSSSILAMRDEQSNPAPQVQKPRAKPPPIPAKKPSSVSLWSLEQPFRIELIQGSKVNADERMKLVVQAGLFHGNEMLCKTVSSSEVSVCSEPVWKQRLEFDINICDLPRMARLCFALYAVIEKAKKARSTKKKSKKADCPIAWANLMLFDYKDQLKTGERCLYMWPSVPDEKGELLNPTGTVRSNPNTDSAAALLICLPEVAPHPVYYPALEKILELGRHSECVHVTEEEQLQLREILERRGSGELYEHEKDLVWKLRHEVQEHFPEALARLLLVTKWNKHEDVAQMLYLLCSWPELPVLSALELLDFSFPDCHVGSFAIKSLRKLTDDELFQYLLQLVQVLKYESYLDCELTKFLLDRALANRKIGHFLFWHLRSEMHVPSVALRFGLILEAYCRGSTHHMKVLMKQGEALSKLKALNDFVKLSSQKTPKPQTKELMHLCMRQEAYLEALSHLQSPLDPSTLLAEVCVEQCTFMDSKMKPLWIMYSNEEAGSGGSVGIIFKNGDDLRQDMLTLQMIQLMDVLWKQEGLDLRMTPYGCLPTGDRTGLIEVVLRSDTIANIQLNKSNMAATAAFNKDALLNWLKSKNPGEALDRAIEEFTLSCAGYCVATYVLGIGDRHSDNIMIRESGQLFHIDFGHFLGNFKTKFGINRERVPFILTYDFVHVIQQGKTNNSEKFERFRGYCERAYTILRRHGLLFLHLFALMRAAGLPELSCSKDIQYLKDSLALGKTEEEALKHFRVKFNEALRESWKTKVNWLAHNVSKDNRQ
PI3Kδ kinase, sequence (P27986 whole entry partner): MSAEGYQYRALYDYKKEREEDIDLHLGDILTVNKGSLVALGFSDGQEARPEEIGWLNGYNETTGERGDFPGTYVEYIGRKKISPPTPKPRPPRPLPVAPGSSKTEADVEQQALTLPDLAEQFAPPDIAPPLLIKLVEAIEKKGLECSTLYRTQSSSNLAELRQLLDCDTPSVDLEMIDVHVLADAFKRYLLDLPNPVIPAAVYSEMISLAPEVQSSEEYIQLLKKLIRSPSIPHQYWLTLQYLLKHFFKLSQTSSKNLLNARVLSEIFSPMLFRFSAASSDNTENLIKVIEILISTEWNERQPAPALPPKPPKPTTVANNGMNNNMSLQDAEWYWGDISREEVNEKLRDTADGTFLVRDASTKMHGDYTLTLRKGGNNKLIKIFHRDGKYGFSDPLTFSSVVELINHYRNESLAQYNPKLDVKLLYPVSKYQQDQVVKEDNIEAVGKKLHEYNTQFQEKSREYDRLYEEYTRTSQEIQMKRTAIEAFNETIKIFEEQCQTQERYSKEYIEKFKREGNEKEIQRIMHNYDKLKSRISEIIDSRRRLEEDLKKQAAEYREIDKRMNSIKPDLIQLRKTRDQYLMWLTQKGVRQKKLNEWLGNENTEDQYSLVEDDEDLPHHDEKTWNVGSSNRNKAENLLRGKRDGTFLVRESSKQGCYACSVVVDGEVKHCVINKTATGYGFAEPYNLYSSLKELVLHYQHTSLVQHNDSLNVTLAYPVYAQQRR

[1] = MCF7, MCF-7 cells, treated for 24-168 hours, read-out: IC50 (nM) MCF-7
[2] = DU-4475, DU4475 cells, treated for 24-168 hours, read-out: IC50 (nM) DU4475
[3] = DU-4475, read-out: IC50 (nM) DU4475
[4] = MCF7, read-out: IC50 (nM) MCF-7

CDK4, sequence (P11802 whole entry): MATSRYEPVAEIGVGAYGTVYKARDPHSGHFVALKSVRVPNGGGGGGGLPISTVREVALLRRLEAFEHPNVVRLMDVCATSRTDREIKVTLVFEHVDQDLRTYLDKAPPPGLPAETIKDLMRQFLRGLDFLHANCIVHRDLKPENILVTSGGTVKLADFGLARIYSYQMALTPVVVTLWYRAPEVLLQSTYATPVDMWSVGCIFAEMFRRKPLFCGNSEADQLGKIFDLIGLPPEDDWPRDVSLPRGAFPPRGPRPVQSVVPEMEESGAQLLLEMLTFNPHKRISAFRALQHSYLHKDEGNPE
CDK4, sequence (P24385 whole entry partner): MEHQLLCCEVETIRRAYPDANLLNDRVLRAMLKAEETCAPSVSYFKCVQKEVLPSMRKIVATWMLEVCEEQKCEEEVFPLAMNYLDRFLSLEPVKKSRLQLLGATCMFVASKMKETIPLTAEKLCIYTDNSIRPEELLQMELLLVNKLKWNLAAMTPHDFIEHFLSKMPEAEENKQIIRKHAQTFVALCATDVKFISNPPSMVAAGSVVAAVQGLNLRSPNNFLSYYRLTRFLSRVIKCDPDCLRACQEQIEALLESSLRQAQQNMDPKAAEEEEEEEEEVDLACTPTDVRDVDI

## COCCNS(=O)(=O)c1ccc(Nc2ncc(F)c(-c3cc(F)c4c(c3)N(C(C)C)CCO4)n2)cc1 [Compound 523, 4-(5-fluoro-4-(8-fluoro-4-isopropyl-3,4-dihydro-2H-benzo[b][1,4]oxazin-6-yl)pyrimidin-2-ylamino)-N-(2-methoxyethyl)benzenesulfonamide]
CDK4
  pIC50: 7.70
CDK6
  pIC50: 7.29
CDK1 (cyclin B)
  pIC50: 7.68
CDK2 (cyclin A)
  pIC50: 7.13
MCF-7; [1]
  IC50: 55 nM
DU4475; [2]
  IC50: 75 nM

## CC(C)N1CCOc2c(F)cc(-c3nc(Nc4ccc5c(c4)C(=O)NCC5)ncc3F)cc21 [Compound 502, 7-((5-fluoro-4-(8-fluoro-4-isopropyl-3,4-dihydro-2H-benzo[b][1,4]oxazin-6-yl)pyrimidin-2-yl)amino)-3,4-dihydroisoquinolin-1(2H)-one]
CDK4
  pIC50: 7.92
CDK6
  pIC50: 7.55
CDK1 (cyclin B)
  pIC50: 7.16
CDK2 (cyclin A)
  pIC50: 7.13
MCF-7; [1]
  IC50: 435 nM
DU4475; [2]
  IC50: 405 nM

## CC(C)N1CCOc2c(F)cc(-c3nc(Nc4cc(C5CCN(C)CC5)n[nH]4)ncc3F)cc21 [Compound 499, 5-fluoro-4-(8-fluoro-4-isopropyl-3,4-dihydro-2H-benzo[b][1,4]oxazin-6-yl)-N-(3-(1-methylpiperidin-4-yl)-1H-pyrazol-5-yl)pyrimidin-2-amine]
CDK1 (cyclin B)
  pIC50: 7.16
CDK2 (cyclin A)
  pIC50: 7.72
MCF-7; [1]
  IC50: 175 nM
DU4475; [3]
  IC50: 345 nM

## CC(C)N1CCOc2c(F)cc(-c3nc(Nc4ccc5c(n4)CCNC5)ncc3F)cc21 [Compound 481, N-(5-fluoro-4-(8-fluoro-4-isopropyl-3,4-dihydro-2H-benzo[b][1,4]oxazin-6-yl)pyrimidin-2-yl)-5,6,7,8-tetrahydro-1,6-naphthyridin-2-amine]
CDK1 (cyclin B)
  pIC50: 7.16
CDK2 (cyclin A)
  pIC50: 7.62
FMS kinase
  pIC50: 6.37
MCF-7; [1]
  IC50: 85 nM
DU4475; [2]
  IC50: 345 nM
PI3Kδ kinase
  pIC50: < 4.70

## CC(C)N1CCOc2c(F)cc(-c3nc(Nc4ccc(S(=O)(=O)NCCN(C)C)cc4)ncc3F)cc21 [Compound 513, N-(2-(dimethylamino)ethyl)-4-((5-fluoro-4-(8-fluoro-4-isopropyl-3,4-dihydro-2H-benzo[b][1,4]oxazin-6-yl)pyrimidin-2-yl)amino)benzenesulfonamide]
CDK4
  pIC50: 8.70
CDK6
  pIC50: 8.10
CDK1 (cyclin B)
  pIC50: > 9.00
CDK2 (cyclin A)
  pIC50: 8.52
MCF-7; [1]
  IC50: 17 nM
DU4475; [2]
  IC50: 50 nM

## CC(C)N1CCOc2c(F)cc(-c3nc(Nc4ccc5c(c4)CCN(C(=O)CN(C)C)C5)ncc3F)cc21 [Compound 456, 2-(dimethylamino)-1-(6-((5-fluoro-4-(8-fluoro-4-isopropyl-3,4-dihydro-2H-benzo[b][1,4]oxazin-6-yl)pyrimidin-2-yl)amino)-3,4-dihydroisoquinolin-2(1H)-yl)ethan-1-one]
CDK4
  pIC50: 8.40
CDK6
  pIC50: 8.46
CDK1 (cyclin B)
  pIC50: > 9.00
CDK2 (cyclin A)
  pIC50: > 9.00
FMS kinase
  pIC50: 8.40
MCF-7; [1]
  IC50: < 4 nM
PI3Kδ kinase
  pIC50: 4.71

## CC(C)N1CCOc2c(F)cc(-c3nc(Nc4cnn(C5CCN(C)CC5)c4)ncc3F)cc21 [Compound 497, 5-fluoro-4-(8-fluoro-4-isopropyl-3,4-dihydro-2H-benzo[b][1,4]oxazin-6-yl)-N-(1-(1-methylpiperidin-4-yl)-1H-pyrazol-4-yl)pyrimidin-2-amine]
CDK1 (cyclin B)
  pIC50: 7.07
MCF-7; [4]
  IC50: 40 nM
DU4475; [3]
  IC50: 95 nM

## CC(C)N1CCOc2c(F)cc(-c3nc(Nc4ccc(S(N)(=O)=O)cc4)ncc3F)cc21 [Compound 507, 4-((5-fluoro-4-(8-fluoro-4-isopropyl-3,4-dihydro-2H-benzo[b][1,4]oxazin-6-yl)pyrimidin-2-yl)amino)benzenesulfonamide]
CDK4
  pIC50: 8.22
CDK6
  pIC50: 7.89
CDK1 (cyclin B)
  pIC50: 8.89
CDK2 (cyclin A)
  pIC50: 8.49
MCF-7; [1]
  IC50: < 5 nM
DU4475; [2]
  IC50: 20 nM

## Fc1cnc(Nc2ccc(N3CCCNCC3)cn2)nc1-c1cc(F)c2c(c1)N(C1CCCC1)CCO2 [Compound 478, N-(5-(1,4-diazepan-1-yl)pyridin-2-yl)-4-(4-cyclopentyl-8-fluoro-3,4-dihydro-2H-benzo[b][1,4]oxazin-6-yl)-5-fluoropyrimidin-2-amine]
CDK4
  pIC50: 8.05
CDK6
  pIC50: 7.57
CDK1 (cyclin B)
  pIC50: 6.34
CDK2 (cyclin A)
  pIC50: 7.01
FMS kinase
  pIC50: 5.65
MCF-7; [4]
  IC50: 665 nM
DU4475; [3]
  IC50: 1680 nM
PI3Kδ kinase
  pIC50: 4.47

## CC(C)N1CCOc2c(F)cc(-c3nc(Nc4ccc(N5CCCNCC5)cn4)ncc3F)cc21 [Compound 477, N-(5-(1,4-diazepan-1-yl)pyridin-2-yl)-5-fluoro-4-(8-fluoro-4-isopropyl-3,4-dihydro-2H-benzo[b][1,4]oxazin-6-yl)pyrimidin-2-amine]
CDK1 (cyclin B)
  pIC50: 6.80
CDK2 (cyclin A)
  pIC50: 7.60
FMS kinase
  pIC50: 6.12
MCF-7; [4]
  IC50: 280 nM
DU4475; [3]
  IC50: 1100 nM
PI3Kδ kinase
  pIC50: < 4.30

## CC(C)CN1CCOc2c(F)cc(-c3nc(Nc4ccc(C5CCN(C)CC5)cn4)ncc3F)cc21 [Compound 479, 5-fluoro-4-(8-fluoro-4-isobutyl-3,4-dihydro-2H-benzo[b][1,4]oxazin-6-yl)-N-(5-(1-methylpiperidin-4-yl)pyridin-2-yl)pyrimidin-2-amine]
CDK4
  pIC50: 8.60
CDK6
  pIC50: 8.30
CDK1 (cyclin B)
  pIC50: 6.67
CDK2 (cyclin A)
  pIC50: 7.36
FMS kinase
  pIC50: 5.59
MCF-7; [4]
  IC50: 240 nM

## Fc1cnc(Nc2ccc(N3CCOCC3)cn2)nc1-c1cc(F)c2c(c1)N(C1CCC1)CCO2 [Compound 487, 4-(4-cyclobutyl-8-fluoro-3,4-dihydro-2H-benzo[b][1,4]oxazin-6-yl)-5-fluoro-N-(5-morpholinopyridin-2-yl)pyrimidin-2-amine]
CDK4
  pIC50: 7.26
CDK6
  pIC50: 6.95
FMS kinase
  pIC50: < 5.30
MCF-7; [4]
  IC50: 615 nM
DU4475; [3]
  IC50: 2170 nM
PI3Kδ kinase
  pIC50: < 4.30

## CC(C)N1CCOc2c(F)cc(-c3nc(Nc4ccc(N5CCC(CN)CC5)cn4)ncc3F)cc21 [Compound 518, N-(5-(4-(aminomethyl)piperidin-1-yl)pyridin-2-yl)-5-fluoro-4-(8-fluoro-4-isopropyl-3,4-dihydro-2H-benzo[b][1,4]oxazin-6-yl)pyrimidin-2-amine]
CDK4
  pIC50: 8.40
CDK6
  pIC50: 7.55
CDK1 (cyclin B)
  pIC50: 5.93
CDK2 (cyclin A)
  pIC50: 6.25
MCF-7; [1]
  IC50: 1020 nM
DU4475; [3]
  IC50: 1330 nM

## CCN1CCN(Cc2ccc(Nc3ncc(F)c(-c4cc(F)c5c(c4)N(C(C)C)CCO5)n3)nc2)CC1 [Compound 4, N-(5-((4-ethylpiperazin-1-yl)methyl)pyridin-2-yl)-5-fluoro-4-(8-fluoro-4-isopropyl-3,4-dihydro-2H-benzo[b][1,4]oxazin-6-yl)pyrimidin-2-amine]
CDK1 (cyclin B)
  pIC50: 6.89
CDK2 (cyclin A)
  pIC50: 7.92
FMS kinase
  pIC50: 6.25
MCF-7; [4]
  IC50: 110 nM
PI3Kδ kinase
  pIC50: < 5.30

## CC(C)N1CCOc2c(F)cc(-c3nc(Nc4cc(C5CCN(C)CC5)no4)ncc3F)cc21 [Compound 495, N-(5-fluoro-4-(8-fluoro-4-isopropyl-3,4-dihydro-2H-benzo[b][1,4]oxazin-6-yl)pyrimidin-2-yl)-3-(1-methylpiperidin-4-yl)isoxazol-5-amine]
CDK1 (cyclin B)
  pIC50: 8.30
CDK2 (cyclin A)
  pIC50: 8.70
MCF-7; [4]
  IC50: 110 nM
DU4475; [3]
  IC50: 310 nM

## CC(C)N1CCOc2c(F)cc(-c3nc(Nc4ccc(C5CCN(C)C5)cn4)ncc3F)cc21 (stereo not drawn) [Compound 498, 5-fluoro-4-(8-fluoro-4-isopropyl-3,4-dihydro-2H-benzo[b][1,4]oxazin-6-yl)-N-(5-(1-methylpyrrolidin-3-yl)pyridin-2-yl)pyrimidin-2-amine]
CDK4
  pIC50: 9.00
CDK6
  pIC50: 8.52
CDK1 (cyclin B)
  pIC50: 6.65
CDK2 (cyclin A)
  pIC50: 6.81
MCF-7; [1]
  IC50: 170 nM
DU4475; [2]
  IC50: 465 nM

## Fc1cnc(Nc2ccc3c(n2)CCNC3)nc1-c1cc(F)c2c(c1)N(C1CCCC1)CCO2 [Compound 509, N-(4-(4-cyclopentyl-8-fluoro-3,4-dihydro-2H-benzo[b][1,4]oxazin-6-yl)-5-fluoropyrimidin-2-yl)-5,6,7,8-tetrahydro-1,6-naphthyridin-2-amine]
CDK4
  pIC50: 8.30
CDK6
  pIC50: 8.00
CDK1 (cyclin B)
  pIC50: 7.11
CDK2 (cyclin A)
  pIC50: 7.48
MCF-7; [1]
  IC50: 1090 nM
DU4475; [2]
  IC50: 1480 nM

## Fc1cnc(Nc2ccc3c(n2)CCNC3)nc1-c1cc(F)c2c(c1)N(C1CCC1)CCO2 [Compound 482, N-(4-(4-cyclobutyl-8-fluoro-3,4-dihydro-2H-benzo[b][1,4]oxazin-6-yl)-5-fluoropyrimidin-2-yl)-5,6,7,8-tetrahydro-1,6-naphthyridin-2-amine]
CDK4
  pIC50: 8.52
CDK6
  pIC50: 7.80
CDK1 (cyclin B)
  pIC50: 6.81
CDK2 (cyclin A)
  pIC50: 7.54
FMS kinase
  pIC50: 5.76
MCF-7; [4]
  IC50: 230 nM
DU4475; [3]
  IC50: 540 nM
PI3Kδ kinase
  pIC50: < 4.30

## CN1CCC(c2ccc(Nc3ncc(F)c(-c4cc(F)c5c(c4)N(C4CCCC4)CCO5)n3)cc2F)CC1 [Compound 471, 4-(4-cyclopentyl-8-fluoro-3,4-dihydro-2H-benzo[b][1,4]oxazin-6-yl)-5-fluoro-N-(3-fluoro-4-(1-methylpiperidin-4-yl)phenyl)pyrimidin-2-amine]
CDK4
  pIC50: 8.00
CDK6
  pIC50: 7.28
FMS kinase
  pIC50: 6.34
MCF-7; [4]
  IC50: 45 nM
DU4475; [3]
  IC50: 110 nM
PI3Kδ kinase
  pIC50: 5.70
